Test results reported in US12371404B2, “Fused bicyclic alkylene linked imidodicarbonimidic diamides, methods for synthesis, and uses in therapy” (NovaTarg, Inc., priority 2016, dated 2025).
Counter-ions that a name gives are not always drawn. Like-named read-outs stand apart in the source and are kept apart here.

Experiments:
[1] = biological target: T1, human OCT1 (Homo sapiens, UniProt O15245); experiment: Oxygen consumption rate (OCR) assay, HEK293 cells transfected with OCT1; conditions: HEK293 cells stably transfected with human OCT1; MitoXpress Xtra, 2 hours
T1 sequence (O15245 1-554): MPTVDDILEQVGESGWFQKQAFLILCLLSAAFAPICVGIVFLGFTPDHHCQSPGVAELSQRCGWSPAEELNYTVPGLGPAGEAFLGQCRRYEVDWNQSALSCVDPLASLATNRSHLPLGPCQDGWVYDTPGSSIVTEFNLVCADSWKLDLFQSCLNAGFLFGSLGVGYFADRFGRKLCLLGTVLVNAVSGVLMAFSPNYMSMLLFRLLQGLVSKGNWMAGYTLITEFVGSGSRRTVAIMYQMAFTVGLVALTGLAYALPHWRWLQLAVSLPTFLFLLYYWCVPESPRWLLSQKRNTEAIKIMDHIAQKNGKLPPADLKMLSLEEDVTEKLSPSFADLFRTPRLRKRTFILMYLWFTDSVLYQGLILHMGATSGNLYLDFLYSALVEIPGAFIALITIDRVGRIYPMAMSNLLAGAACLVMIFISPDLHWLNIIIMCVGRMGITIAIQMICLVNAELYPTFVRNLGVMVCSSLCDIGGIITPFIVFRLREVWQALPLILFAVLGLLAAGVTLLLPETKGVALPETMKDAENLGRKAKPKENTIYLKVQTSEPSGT
Text: (§1) Diabetologia 2011, 54 (12): 3101-3110, each incorporated by reference with regard to such testing. The compounds of the present invention are similarly tested in an oxygen consumption rate (OCR) assay to evaluate the functional activity of test compounds in cells.
(§2) In brief, the assay uses HEK293 cells stably transfected with the human OCT1, OCT2, OCT3, PMAT, or MATE1 transporters to determine a compound's relative transporter selectivity and its effect on the rate of oxygen consumption relative to control (Neo) cells. The MitoXpress Xtra oxygen-sensitive fluorophore is used to monitor oxygen consumption rates in the presence and absence of compound treatments. The analogs were tested at eight (8) different concentrations in triplicate to determine a relative IC50 value.
(§3) A summary description of the protocol is as follows:
HEK293 cells transformed with human organic cation transporters were plated in collagen coated, 96-well black-walled microclear plates (Greiner-Bio 1, #655956) at 60,000 cells per well in growth medium (DMEM (LG), 10% FBS, 400 μg/ml G418). Cells were incubated overnight to allow attachment. The outer columns (1 and 12) are not seeded with cells, as controls. The next day, plating medium was removed and replaced with 150 μL of assay medium (DMEM/F12 (PRF), 5% FBS, antibiotics) containing compound dilutions. A 3-fold serial dilution was prepared in the assay medium and transferred to the empty wells. The outer columns and column 11 received 150 μL of assay medium only. […] Dual read time-resolved fluorescence (BMG FluoStar Galaxy reader) was measured over 2 hours with measurements taken every 2 minutes. […] Background TRF values from A1-D1 were subtracted from all readings. A ratiometric analysis was performed to determine changes in the Lifetime fluorescence signal:Lifetime (μs) [T]=(D2−D1)/ln(W1/W2), where D is delay; W is fluorescence window value at each time point. Lifetime slopes were calculated using each Lifetime measurement over time. IC50 values were determined by plotting lifetime slope values vs. compound concentration.

[2] = biological target: T2, human MATE1 (Homo sapiens, UniProt Q96FL8); experiment: Oxygen consumption rate (OCR) assay, HEK293 cells transfected with MATE1
T2 sequence (Q96FL8 1-570): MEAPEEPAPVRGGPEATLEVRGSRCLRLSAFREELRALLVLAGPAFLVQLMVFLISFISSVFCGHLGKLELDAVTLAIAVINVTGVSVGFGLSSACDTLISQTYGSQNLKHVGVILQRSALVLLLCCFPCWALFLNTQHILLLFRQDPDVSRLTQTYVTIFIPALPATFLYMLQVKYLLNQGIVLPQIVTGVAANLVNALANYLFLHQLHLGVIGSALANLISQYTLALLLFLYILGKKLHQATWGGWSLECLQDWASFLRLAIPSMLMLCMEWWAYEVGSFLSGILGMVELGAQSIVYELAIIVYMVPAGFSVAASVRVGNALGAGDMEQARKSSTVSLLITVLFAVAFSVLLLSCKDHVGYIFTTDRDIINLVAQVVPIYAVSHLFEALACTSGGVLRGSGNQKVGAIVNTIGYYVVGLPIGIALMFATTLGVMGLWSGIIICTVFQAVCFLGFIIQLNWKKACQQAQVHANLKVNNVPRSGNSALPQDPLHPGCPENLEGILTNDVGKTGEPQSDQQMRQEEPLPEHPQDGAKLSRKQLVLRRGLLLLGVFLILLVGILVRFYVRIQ
Text: The compounds of the present invention are similarly tested in an oxygen consumption rate (OCR) assay to evaluate the functional activity of test compounds in cells.
as §2, §3
(§4) Cells were incubated overnight to allow attachment. The outer columns (1 and 12) are not seeded with cells, as controls. The next day, plating medium was removed and replaced with 150 μL of assay medium (DMEM/F12 (PRF), 5% FBS, antibiotics) containing compound dilutions. A 3-fold serial dilution was prepared in the assay medium and transferred to the empty wells. The outer columns and column 11 received 150 μL of assay medium only. 10 μL of MitoXpress Xtra reagent was added to each test well, and 100 μL of pre-warmed mineral oil was overlayed in each well to create a seal. Dual read time-resolved fluorescence (BMG FluoStar Galaxy reader) was measured over 2 hours with measurements taken every 2 minutes. Excitation is 340 nm, Emission is 650 nm. For lifetime analysis, two measurements per well were taken: 1) delay of 30 μs, with a window of 30 μs; and 2) delay of 70 μs with a window of 30 μs. Background TRF values from A1-D1 were subtracted from all readings. A ratiometric analysis was performed to determine changes in the Lifetime fluorescence signal:Lifetime (μs) [T]=(D2−D1)/ln(W1/W2), where D is delay; W is fluorescence window value at each time point. Lifetime slopes were calculated using each Lifetime measurement over time. IC50 values were determined by plotting lifetime slope values vs. compound concentration.

[3] = system: control (Neo) cells; experiment: Oxygen consumption rate (OCR) assay, control (Neo) HEK293 cells; assay type: cell-based; conditions: Homo sapiens, read-out: Oxygen Consumption Rate (OCR) IC50, Neo
Text: as §1, §2, §3
as §4, with “HEK293 cells transformed with human organic cation transporters were plated in collagen coated, 96-well black-walled microclear plates (Greiner-Bio 1, #655956) at 60,000 cells per well in growth medium (DMEM (LG), 10% FBS, 400 μg/ml G418). Cells” for “Cells”

[4] = biological target: T3, human PMAT (Homo sapiens, UniProt Q7RTT9); experiment: Oxygen consumption rate (OCR) assay, HEK293 cells transfected with PMAT; assay type: cell-based; conditions: for inhibition at 10 µM: HEK293 cells with human PMAT
T3 construct: expressed in transfected cells; host or cells: HEK293
T3 sequence (Q7RTT9 1-530): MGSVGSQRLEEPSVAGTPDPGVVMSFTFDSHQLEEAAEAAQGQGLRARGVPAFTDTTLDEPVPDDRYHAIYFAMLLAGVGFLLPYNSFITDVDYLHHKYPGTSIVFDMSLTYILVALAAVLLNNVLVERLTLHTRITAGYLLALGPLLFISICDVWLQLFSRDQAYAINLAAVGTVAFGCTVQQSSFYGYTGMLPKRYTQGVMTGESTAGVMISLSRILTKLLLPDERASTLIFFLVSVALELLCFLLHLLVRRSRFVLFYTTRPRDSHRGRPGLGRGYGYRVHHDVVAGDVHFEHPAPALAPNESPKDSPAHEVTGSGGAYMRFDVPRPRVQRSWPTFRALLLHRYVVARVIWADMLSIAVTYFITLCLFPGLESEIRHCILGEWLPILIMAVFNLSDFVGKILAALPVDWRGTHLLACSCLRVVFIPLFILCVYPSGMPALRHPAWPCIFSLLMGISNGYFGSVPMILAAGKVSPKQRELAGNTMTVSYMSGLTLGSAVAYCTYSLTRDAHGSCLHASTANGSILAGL
Text: as §1, §2, §3
as §4, with “HEK293 cells transformed with human organic cation transporters were plated in collagen coated, 96-well black-walled microclear plates (Greiner-Bio 1, #655956) at 60,000 cells per well in growth medium (DMEM (LG), 10% FBS, 400 μg/ml G418). Cells” for “Cells”

[5] = control (Neo) HEK293 cells, MitoXpress Xtra, 2 hours
[6] = HEK293 cells stably transfected with human PMAT, MitoXpress Xtra, 2 hours, read-out: Oxygen Consumption Rate (OCR) IC50, PMAT

SMILES: Cc1[nH]c2ccccc2c1CCNC(=N)NC(=N)N [Ex 1, 1-[2-(2-methyl-1H-indol-3-yl)ethyl]imidodicarbonimide diamide]
- Oxygen Consumption Rate (OCR) IC50, OCT 1 [1]: 1267 µM
- inhibition at 1000 µM ([2]; HEK293, read-out: Oxygen Consumption Rate (OCR), MATE 1, % Inhibition at 1000 μM test concentration): 30%
- IC50 ([3]; HEK293, 2 h): > 5000 µM
- IC50 [4]: 3 µM

SMILES: Cl.N=C(N)NC(=N)NCCc1c[nH]c2ccc(F)cc12 [Ex 2, 1-[2-(5-fluoro-1H-indol-3-yl)ethyl]imidodicarbonimide diamide hydrochloride]
- Oxygen Consumption Rate (OCR) IC50, OCT 1 [1]: >1000 µM
- IC50 [2]: > 1000 µM
- IC50 ([3]; HEK293, 2 h): > 1000 µM
- IC50 [4]: 5 µM

SMILES: CN(C)C(=N)NC(=N)NCCc1c[nH]c2ccc(C(F)(F)F)cc12 [Ex 32, 3-(2-(5-trifluoromethyl-1H-indol-3-yl)ethyl)-1,1-dimethyl imidodicarbonimide diamide hydrochloride]
- IC50 [2]: 681 µM
- IC50 [3, 5]: 397 µM
- inhibition at 10 µM [4]: 10%

SMILES: N=C(N)NC(=N)NCCc1c[nH]c2cccc(Cl)c12 [Ex 34, 1-[2-(4-chloro-1H-indol-3-yl)ethyl]imidodicarbonimide diamide, trifluoroacetic acid salt]
- Oxygen Consumption Rate (OCR) IC50, OCT 1 [1]: 3 µM
- IC50 [2]: 19 µM
- IC50 ([3]; HEK293, 2 h): 184 µM
- IC50 [4]: 2 µM

SMILES: N=C(N)NC(=N)NCCc1c[nH]c2cc(Cl)ccc12 [Ex 35, 1-[2-(6-chloro-1H-indol-3-yl)ethyl]imidodicarbonimide diamide, trifluoroacetic acid salt]
- IC50 [2]: 20 µM
- IC50 [3, 5]: 205 µM
- inhibition at 10 µM [4]: 68%

SMILES: N=C(N)NC(=N)NCCc1c[nH]c2c(Cl)cccc12 [Ex 36, 1-[2-(7-chloro-1H-indol-3-yl)ethyl]imidodicarbonimide diamide, trifluoroacetic acid salt]
- IC50 [2]: 26 µM
- IC50 [3, 5]: 409 µM
- inhibition at 10 µM [4]: 55%

SMILES: N=C(N)NC(=N)NCCc1c[nH]c2c(F)c(F)c(F)cc12 [Ex 41, 1-[2-(5,6,7-trifluoro-1H-indol-3-yl)ethyl]imidodicarbonimide diamide, trifluoroacetic acid salt]
- IC50 [2]: 675 µM
- IC50 ([3]; HEK293, 2 h): 460 µM
- IC50 [4]: 6 µM

SMILES: N=C(N)NC(=N)NCCc1c[nH]c2c(F)c(F)c(F)c(F)c12 [Ex 42, 1-[2-(4,5,6,7-tetrafluoro-1H-indol-3-yl)ethyl]imidodicarbonimide diamide, trifluoroacetic acid salt]
- IC50 [2]: 183 µM
- IC50 ([3]; HEK293, 2 h): 129 µM
- IC50 [4]: 5 µM

SMILES: N=C(N)NC(=N)NCCc1c[nH]c2ncc(F)cc12 [Ex 43, 1-(2-(5-fluoro-1H-pyrrolo[2,3-b]pyridin-3-yl)ethyl)imidodicarbonimide diamide, trifluoroacetic acid salt]
- IC50 [2]: 2230 µM
- IC50 [3, 5]: 11000 µM
- IC50 [4, 6]: 23 µM

SMILES: N=C(N)NC(=N)NCCc1c[nH]c2nc(F)ccc12 [Ex 45, 1-(2-(6-fluoro-1H-pyrrolo[2,3-b]pyridin-3-yl)ethyl)imidodicarbonimide diamide, trifluoroacetic acid salt]
- IC50 [2]: > 3000 µM
- IC50 [3, 5]: 11400 µM
- IC50 [4, 6]: 14 µM

SMILES: N=C(N)NC(=N)NCCc1c[nH]c2cc(Cl)c(F)cc12 [Ex 48, 1-[2-(6-chloro-5-fluoro-1H-indol-3-yl)ethyl]imidodicarbonimide diamide, trifluoroacetic acid salt]
- IC50 [2]: 101 µM
- IC50 [3, 5]: 210 µM
- inhibition at 10 µM [4]: 61%

SMILES: N=C(N)NC(=N)NCc1c[nH]c2ccccc12 [Ex 55, 1-[(1H-indol-3-yl)methyl]imidodicarbonimide diamide, trifluoroacetic acid salt]
- IC50 [2]: 1650 µM
- IC50 [3, 5]: 1400 µM
- inhibition at 10 µM [4]: 10%

SMILES: Cc1ccc2c(CCNC(=N)NC(=N)N)c[nH]c2c1 [Ex 56, 1-[2-(6-methyl-1H-indol-3-yl)ethyl]imidodicarbonimide diamide, trifluoroacetate salt]
- IC50 [2]: 769 µM
- IC50 [3, 5]: 895 µM
- inhibition at 10 µM [4]: 43%

SMILES: N=C(N)NC(=N)NCCc1c[nH]c2ccc(OC(F)(F)F)cc12 [Ex 57, 1-[2-(5-trifluoromethoxy-1H-indol-3-yl)ethyl]imidodicarbonimide diamide, trifluoroacetic acid salt]
- IC50 [2]: 631 µM
- IC50 [3, 5]: 255 µM
- inhibition at 10 µM [4]: 6%

SMILES: Cc1cccc2c(CCNC(=N)NC(=N)N)c[nH]c12 [Ex 59, 1-[2-(7-methyl-1H-indol-3-yl)ethyl]imidodicarbonimide diamide, trifluoroacetic acid salt]
- IC50 [2]: 112 µM
- IC50 [3, 5]: 1290 µM
- inhibition at 10 µM [4]: 47%
